From patent US8728771B2, “L-succinylaminoacylase and process for producing L-amino acid using it” (Toyo Boseki Kabushiki Kaisha, priority 2008, dated 2014)

Tests used:
[1] = system: L-succinylaminoacylase disclosed in Patent Document 3; test: Comparative experiment for enzymatic activity (ii), enzyme of Patent Document 3 (Example 7); assay type: biochemical, Geobacillus stearothermophilus NCA 1503 strain; details: 4 hours, 50° C., pH 7.5, cobalt acetate
Experimental: (§1) Each of N-succinyl-DL-4-bromophenylalanine, N-succinyl-DL-biphenylalanine, N-succinyl-DL-3,4-dichlorophenylalanine, N-succinyl-DL-cyclohexylglycine, and N-succinyl-DL-tert-leucine synthesized in the above (3) was used to prepare an amino acid solution of 10% by weight (pH 7.5). Mixed solution of 0.25 ml of 0.1M HEPES-NaOH buffer (pH 7.5), 0.025 ml of 0.1M cobalt acetate solution, 0.5 ml of each amino acid solution and 4.2 ml of distilled water was prepared. To the resulting solution was added 0.025 ml of a solution of the L-succinylaminoacylase disclosed in Example 1 of Patent Document 3 made into 5 mg/ml or a solution of the L-succinylaminoacylase of the present invention prepared in the above Example 1 made into 5 mg/ml. The resulting reaction solution was subjected to a reaction for 4 hours with stirring at 50° C. After completion of the reaction, a sample was collected therefrom and subjected to an HPLC measurement under the same condition as in Example 2 to calculate the conversion rate into each of the L-amino acids corresponding to N-succinyl-DL-4-bromophenylalanine, N-succinyl-DL-biphenylalanine, N-succinyl-DL-3,4-dichlorophenylalanine, N-succinyl-DL-cyclohexylglycine, and N-succinyl-DL-tert-leucine.

[2] = system: L-succinylaminoacylase of the present invention; test: Comparative experiment for enzymatic activity (ii), enzyme of the present invention (Example 7); assay type: biochemical, Geobacillus stearothermophilus IFO 12983 strain; details: 4 hours, 50° C., pH 7.5, cobalt acetate
Experimental: as §1

[3] = system: L-succinylaminoacylase of the present invention; test: Hydrolysis of N-succinyl-DL-amino acid to L-amino acid by L-succinylaminoacylase, HPLC (Examples 2 and 3); assay type: biochemical, Geobacillus stearothermophilus IFO 12983 strain; details: for Yield (%) of corresponding L-amino acid: 10% by weight substrate, 96 hours, same condition as in Example 2 (57° C., 0.5 mM CoCl2)
Experimental: The N-succinyl-DL-tert-leucine synthesized in the above (1) was dissolved in distilled water and its pH was adjusted using 0.1N sodium hydroxide (manufactured by Nacalai tesque) to prepare a 5% by weight solution of N-succinyl-DL-tert-leucine (pH 7 to 8). […] This reaction solution was kept at 57° C. for 144 hours with stirring.
Column: Inertsil ODS-2 (particle size: 5 μm; 4.6 mm inner diameter×250 mm length) manufactured by GL Science
Eluant: aqueous solution of phosphate (pH 2.3)/acetonitrile for HPLC=80:20
Column temperature: 40° C.
The reaction was carried out for 96 hours under the same condition as in Example 2 using N-succinyl-DL-valine, N-succinyl-DL-phenylalanine, N-succinyl-DL-tryptophan, N-succinyl-DL-asparagine, N-succinyl-DL-serine, N-succinyl-DL-tyrosine, or N-succinyl-DL-cyclohexylglycine synthesized in the above (2) and (3) instead of N-succinyl-DL-tert-leucine. However, concentration of each N-succinyl-DL-amino acid was made 10% by weight. After completion of the reaction, a sample was collected therefrom and subjected an HPLC measurement under the same condition as in Example 2 to calculate the conversion rate into each L-amino acid corresponding to N-succinyl-DL-valine, N-succinyl-DL-phenylalanine, N-succinyl-DL-tryptophan, N-succinyl-DL-asparagine, N-succinyl-DL-serine, N-succinyl-DL-tyrosine, and N-succinyl-DL-cyclohexylglycine.

[4] = system: L-succinylaminoacylase of the present invention and N-succinylamino acid racemase; test: Synthesis of L-tert-leucine using L-succinylaminoacylase and N-succinylamino acid racemase (i) (Example 4); assay type: biochemical, Geobacillus stearothermophilus; details: 1% by weight substrate, racemase prepared in (1) added, 90 hours; 100% is the theoretically highest yield
Experimental: The reaction was carried out for 90 hours under the same condition as in Example 2 except that the concentration of the N-succinyl-DL-tert-leucine solution was made 1% by weight and that 0.1 ml of a 9.6 mg/ml solution of N-succinylamino acid racemase prepared in the above (1) was previously added to the reaction solution. After completion of the reaction, the sample was collected therefrom and subjected to an HPLC measurement under the same condition as in Example 2 to calculate the yield of L-tert-leucine whereupon the yield was not lower than 90% and the value being nearly equal to 100% which is the theoretically highest yield was achieved.

[5] = system: L-succinylaminoacylase of the present invention and N-succinylamino acid racemase; test: Synthesis of L-tert-leucine using L-succinylaminoacylase and N-succinylamino acid racemase (ii) (Example 5); assay type: biochemical; details: 1% by weight substrate, racemase prepared in (2) added, up to 120 hours
Experimental: The same reaction as in Example 4 was carried out for 120 hours except that the product prepared in the above (2) was used as an N-succinylamino acid racemase. The sample was collected after 24 hours, 48 hours and 120 hours from the start of the reaction and subjected to an HPLC measurement under the same condition as in Example 2 to confirm the synthesis of L-tert-leucine from N-succinyl-DL-tert-leucine.

[6] = system: L-succinylaminoacylase of the present invention; test: Comparative experiment for enzymatic activity (i), with racemase (Example 6); assay type: biochemical, Geobacillus stearothermophilus IFO 12983 strain; details: 5% by weight substrate, racemase (2), 50° C., up to 144 hours, FIG. 3
Experimental: The N-succinyl-DL-tert-leucine synthesized in the above (1) was dissolved in distilled water and its pH was adjusted using 0.1N sodium hydroxide (manufactured by Nacalai tesque) to prepare a 5% by weight solution of N-succinyl-DL-tert-leucine (pH 7 to 8). To 10 ml of this solution were added 0.5 mM (final concentration) of CoCl2 and 0.1 ml of the N-succinylamino acid racemase in the above (2) prepared in 10 mg/ml. To the resulting solution was added 0.1 ml of the L-succinylaminoacylase disclosed in Example 1 of Patent Document 3 made into 2.5 mg/ml or a solution of the L-succinylaminoacylase of the present invention prepared in the above Example 1 and made into 2.5 mg/ml. The prepared reaction solution was kept at 50° C. for 144 hours with stirring. The sample was collected after 24 hours, 48 hours, 72 hours and 144 hours from the start of the reaction and subjected to an HPLC measurement to confirm the peaks of succinyl-form compound and free-form compound whereby the synthesis of L-tert-leucine from N-succinyl-DL-tert-leucine was confirmed.

[7] = Physical and chemical properties of the L-succinylaminoacylase (temperature stability, optimum temperature, optimum pH); assay type: physicochemical
Experimental: Physical and chemical properties of the L-succinylaminoacylase of the present invention are as shown in the following (i) to (v).
(iii) Temperature stability: When it is subjected to a heating treatment for 30 minutes, it is stable at 70° C. and is inactivated at 75° C. or higher;
(iv) Optimum temperature: When it is made to react at pH 7 to 8, its action is optimum at the temperature of 55 to 60° C.; and
(v) Optimum pH: When it is made to react at 60° C. for 30 minutes, its action is optimum at pH 7.

[8] = Metal ion dependence of L-succinylaminoacylase activity; assay type: biochemical
Text: Examples of the divalent or univalent metal ion include Mn^2+, Co^2+, Mg^2+, Ca^2+, Ni^2+ and K^+ and, among them, Co^2+ is particularly preferred. It has been known that, when Co^2+ is used, the activity increased to an extent of twice or more as compared with the case where Zn^2+ is used.

[9] = heating treatment for 30 minutes

## O=C(O)CCC(=O)NC(Cc1ccc(-c2ccccc2)cc1)C(=O)O (racemic) [N-succinyl-DL-biphenylalanine]
[1]
  Conversion rate by L-succinylaminoacylase of Patent Document 3 (%): 8.8%
[2]
  Conversion rate by L-succinylaminoacylase of the present invention (%): 74.1%

## O=C(O)CCC(=O)NC(Cc1ccc(O)cc1)C(=O)O (racemic) [N-succinyl-DL-tyrosine]
[3]
  Yield (%) of corresponding L-amino acid: 19.1%

## CC(C)(C)C(NC(=O)CCC(=O)O)C(=O)O (racemic) [N-succinyl-DL-tert-leucine]
[3]; 5% by weight substrate, 0.5 mM CoCl2, 57° C., pH 7 to 8, up to 144 hours, 50% is the theoretically highest yield
  Yield (conversion rate) of L-tert-leucine: ~50%
[4]
  Yield of L-tert-leucine: ≥ 90%
[5]
  Yield of L-tert-leucine: ≥ 90%
[6]
  Conversion rate from N-succinyl-DL-tert-leucine to L-tert-leucine compared with enzyme of Patent Document 3: significantly high conversion rate
[1]
  Conversion rate by L-succinylaminoacylase of Patent Document 3 (%): 0.1%
[2]
  Conversion rate by L-succinylaminoacylase of the present invention (%): 45.7%

## O=C(O)CCC(=O)NC(Cc1ccc(Cl)c(Cl)c1)C(=O)O (racemic) [N-succinyl-DL-dichlorophenylalanine, N-succinyl-DL-3,4-dichlorophenylalanine]
[1]
  Conversion rate by L-succinylaminoacylase of Patent Document 3 (%): 82.0%
[2]
  Conversion rate by L-succinylaminoacylase of the present invention (%): 83.3%

## O=C(O)CCC(=O)NC(C(=O)O)C1CCCCC1 (racemic) [N-succinyl-DL-cyclohexylglycine]
[3]
  Yield (%) of corresponding L-amino acid: 49.2%
[1]
  Conversion rate by L-succinylaminoacylase of Patent Document 3 (%): 53.6%
[2]
  Conversion rate by L-succinylaminoacylase of the present invention (%): 97.3%

## O=C(O)CCC(=O)NC(Cc1c[nH]c2ccccc12)C(=O)O (racemic) [N-succinyl-DL-tryptophan]
[3]
  Yield (%) of corresponding L-amino acid: 31.4%

## CC(C)C(NC(=O)CCC(=O)O)C(=O)O (racemic) [N-succinyl-DL-valine]
[3]
  Yield (%) of corresponding L-amino acid: 42.4%

## O=C(O)CCC(=O)NC(CO)C(=O)O (racemic) [N-succinyl-DL-serine]
[3]
  Yield (%) of corresponding L-amino acid: 43.4%

## O=C(O)CCC(=O)NC(Cc1ccccc1)C(=O)O (racemic) [N-succinyl-DL-phenylalanine]
[3]
  Yield (%) of corresponding L-amino acid: 37.5%

## O=C(O)CCC(=O)NC(Cc1ccc(Br)cc1)C(=O)O (racemic) [N-succinyl-DL-4-bromophenylalanine]
[1]
  Conversion rate by L-succinylaminoacylase of Patent Document 3 (%): 97.1%
[2]
  Conversion rate by L-succinylaminoacylase of the present invention (%): 97.5%

## NC(=O)CC(NC(=O)CCC(=O)O)C(=O)O (racemic) [N-succinyl-DL-asparagine]
[3]
  Yield (%) of corresponding L-amino acid: 42.5%

B1: L-succinylaminoacylase of the present invention: protein of amino acid sequence SEQ ID No: 2, L-succinylaminoacylase of IFO 12983 strain of Geobacillus stearothermophilus (protein, listed as Geobacillus stearothermophilus)
chain: MKEIIQQMKAELWSIFDYLHRHPEISWEEWGTTEFVRRELEREGYRVWTFADCPGVVAEIGDGPFMVGVRSDMDALWQEVNGVWQPNHACGHDAHMTIVLGVAKLLRRIGYEPPGTLRFLFQPAEEKGTGALKLIEKGAVDGMSFLYGVHLRPVQEVKSGYATPAIIHGAAQCIEGRIRGMAAHAARPHLGVNVIEVGSAIVQELGKIHVDPQVPATIKMTRFHAGEKDVNTIPDYAEFSLDLRAQTNEAMEQLVERLRRVVNGVAAIYGAEIELDERTRIVAANPDLDAKRLMEEAIIAVLGEEKCIPPVITSGGEDFHFYAFKKPELKTTMLGLGCDLRPGLHHPQMTFQRDDLLSGIEILARTVINTFALQGEKERVSIAANH
[7]; [9]
  Temperature stability: inactivated at: ≥ 75 °C
  Temperature stability: stable at: 70 °C
[7]; reaction at 60° C. for 30 minutes
  Optimum pH: 7
[8]
  Increase of activity with Co^2+ as compared with Zn^2+: twice or more
